From the NIST ThermoML archive (doi:10.1016/j.fluid.2016.05.024)
± gives the expanded uncertainty stated by the source.

Experiment: mn = molality of the nth substance listed, in mol/kg
Details: 87 kPa, Liquid, Vibrating tube method

CCn1cc[n+](C)c1.O=S(=O)([O-])O [1-ethyl-3-methylimidazolium hydrogen sulfate] + O
mass density [kg/m3]
Details | m1 = 0.0528 | m1 = 0.1003 | m1 = 0.1503 | m1 = 0.2034 | m1 = 0.253 | m1 = 0.303 | m1 = 0.3548 | m1 = 0.4046 | m1 = 0.453 | m1 = 0.5055
293.15 K | 1000.86 ± 1 | 1003.08 ± 1 | 1005.3 ± 1 | 1007.57 ± 1 | 1009.63 ± 1 | 1011.67 ± 1 | 1013.72 ± 1 | 1015.68 ± 1 | 1017.53 ± 1 | 1019.54 ± 1
298.15 K | 999.65 ± 1 | 1001.82 ± 1 | 1003.99 ± 1 | 1006.22 ± 1 | 1008.23 ± 1 | 1010.23 ± 1 | 1012.24 ± 1 | 1014.17 ± 1 | 1016 ± 1 | 1017.98 ± 1
303.15 K | 998.2 ± 1 | 1000.33 ± 1 | 1002.46 ± 1 | 1004.64 ± 1 | 1006.63 ± 1 | 1008.6 ± 1 | 1010.58 ± 1 | 1012.47 ± 1 | 1014.26 ± 1 | 1016.21 ± 1
308.15 K | 996.54 ± 1 | 998.63 ± 1 | 1000.73 ± 1 | 1002.87 ± 1 | 1004.82 ± 1 | 1006.76 ± 1 | 1008.7 ± 1 | 1010.58 ± 1 | 1012.34 ± 1 | 1014.25 ± 1
313.15 K | 994.68 ± 1 | 996.73 ± 1 | 998.8 ± 1 | 1000.91 ± 1 | 1002.83 ± 1 | 1004.74 ± 1 | 1006.66 ± 1 | 1008.5 ± 1 | 1010.24 ± 1 | 1012.13 ± 1
